Target: T1, ERα protein (HiBiT-tagged) in ESR1_HiBiT KI MCF7 cells (Homo sapiens, UniProt P03372)
T1 sequence (P03372 1-595): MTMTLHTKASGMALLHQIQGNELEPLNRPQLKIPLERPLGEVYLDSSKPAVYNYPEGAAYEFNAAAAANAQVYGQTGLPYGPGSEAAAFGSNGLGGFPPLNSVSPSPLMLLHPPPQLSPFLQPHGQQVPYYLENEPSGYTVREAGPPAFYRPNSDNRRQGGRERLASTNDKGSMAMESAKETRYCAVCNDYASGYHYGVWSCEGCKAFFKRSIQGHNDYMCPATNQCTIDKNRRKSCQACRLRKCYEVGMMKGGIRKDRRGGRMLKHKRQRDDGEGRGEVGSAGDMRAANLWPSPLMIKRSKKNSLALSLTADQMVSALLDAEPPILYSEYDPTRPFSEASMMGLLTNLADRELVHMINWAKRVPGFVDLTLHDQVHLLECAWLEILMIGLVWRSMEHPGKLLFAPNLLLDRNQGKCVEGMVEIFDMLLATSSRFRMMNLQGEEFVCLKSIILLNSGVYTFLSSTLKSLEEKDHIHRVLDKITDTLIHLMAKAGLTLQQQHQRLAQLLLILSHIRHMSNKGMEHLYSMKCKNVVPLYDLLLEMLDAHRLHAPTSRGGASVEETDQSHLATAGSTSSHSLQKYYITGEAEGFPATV
Experiment: Nano Glo HiBiT Lytic Degradation Assay
Format: cell-based
Settings: 6 hours with compound, 14-point dose response 1:3, bell-shape curve fit, half-maximal effect of first Hill model, read-out: MCF7 ESR1 HiBiT - (DC50)
How it was run: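 ESR1_HiBiT knock-in MCF7 cells were seeded 24 h before treatment, then exposed to compounds for 6 h at 37° C (14-point 1:3 curves, 10 mM top stock, 0.1% DMSO final, duplicates). HiBiT-ERα was read by lytic LgBiT luminescence, background-subtracted and normalized to DMSO. DC50 was taken from the half-maximal point of the first Hill component of a bell-shaped fit.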

| SMILES | DC50 |
| --- | --- |
| O=C1CC[C@H](N2Cc3cc(N4CCN(CC5CCN(c6ccc([C@@H]7c8ccc(O)cc8CC[C@@H]7c7ccncc7)cc6)CC5)CC4)ccc3C2=O)C(=O)N1 [Compound I-132, (S)-3-(5-(4-((1-(4-((1R,2S)-6-hydroxy-2-(pyridin-4-yl)-1,2,3,4-tetrahydronaphthalen-1-yl)phenyl)piperidin-4-yl)methyl)piperazin-1-yl)-1-oxoisoindolin-2-yl)piperidine-2,6-dione] | 0.0491 nM |
| O=C1CC[C@H](N2Cc3cc(N4CCN(CC5CCN(c6ccc([C@H]7c8ccc(O)cc8CC[C@H]7C7CCCCC7)cc6F)CC5)CC4)ccc3C2=O)C(=O)N1 [Compound I-236, (S)-3-(5-(4-((1-(4-((1S,2S)-2-cyclohexyl-6-hydroxy-1,2,3,4-tetrahydronaphthalen-1-yl)-2-fluorophenyl)piperidin-4-yl)methyl)piperazin-1-yl)-1-oxoisoindolin-2-yl)piperidine-2,6-dione] | 72 nM |
| Cc1cc(F)c([C@H]2OCc3cc(O)ccc3[C@H]2c2ccc(N3CCC(CN4CCN(c5ccc6c(c5)CN([C@H]5CCC(=O)NC5=O)C6=O)CC4)CC3)cc2)cc1F [Compound I-369, (S)-3-(5-(4-((1-(4-((3S,4R)-3-(2,5-difluoro-4-methylphenyl)-7-hydroxyisochroman-4-yl)phenyl)piperidin-4-yl)methyl)piperazin-1-yl)-1-oxoisoindolin-2-yl)piperidine-2,6-dione] | 0.34 nM |
| O=C1CC[C@H](N2Cc3cc(N4CCN(CC5CCN(c6ccc([C@H]7c8ccc(O)cc8CC[C@H]7c7cccc(OC(F)(F)F)c7)cc6)CC5)CC4)ccc3C2=O)C(=O)N1 (single isomer, unassigned) [Compound I-110] | 0.155 nM |
| O=C1CCC(N2Cc3cc(N4CCN(CC5CCN(c6ccc([C@@H]7c8ccc(O)cc8C(F)(F)C[C@@H]7c7ccccc7)cc6)CC5)CC4)ccc3C2=O)C(=O)N1 (stereo partly drawn) [Compound I-305, 3-(5-(4-((1-(4-((1R,2S)-4,4-difluoro-6-hydroxy-2-phenyl-1,2,3,4-tetrahydronaphthalen-1-yl)phenyl)piperidin-4-yl)methyl)piperazin-1-yl)-1-oxoisoindolin-2-yl)piperidine-2,6-dione] | 0.32 nM |
| Cn1nc(C2CCC(=O)NC2=O)c2cccc(N3CCN(CC4CCN(c5ccc([C@@H]6c7ccc(O)cc7CC[C@@H]6c6ccccc6)cc5)CC4)CC3)c21 (stereo partly drawn) [Compound I-189, 3-(7-(4-((1-(4-((1R,2S)-6-hydroxy-2-phenyl-1,2,3,4-tetrahydronaphthalen-1-yl)phenyl)piperidin-4-yl)methyl)piperazin-1-yl)-1-methyl-1H-indazol-3-yl)piperidine-2,6-dione] | 2 nM |
| O=C1CC[C@H](N2Cc3cc(N4CCN(CC5CCN(c6ccc([C@H]7c8ccc(O)cc8CC[C@H]7c7ccc(O)cc7)cc6)CC5)CC4)ccc3C2=O)C(=O)N1 [Compound I-130, (35)-3-[5-[4-[[1-[4-[(1S, 2R)-6-hydroxy-2-(4-hydroxyphenyl)tetralin-1-yl]phenyl]-4-piperidyl]methyl]piperazin-1-yl]-1-oxo-isoindolin-2-yl]piperidine-2,6-dione] | ≥ 10000 nM |
| Cn1ccc([C@H]2CCc3cc(O)ccc3[C@H]2c2ccc(N3CCC(CN4CCN(c5ccc6c(c5)CN([C@H]5CCC(=O)NC5=O)C6=O)CC4)CC3)cc2)n1 (single isomer, unassigned) [Compound I-28] | ≥ 10000 nM |
| C[C@H]1O[C@H](C2CCCCC2)[C@@H](c2ccc(N3CCC(CN4CCN(c5ccc6c(c5)CN([C@H]5CCC(=O)NC5=O)C6=O)CC4)CC3)cc2)c2ccc(O)cc21 (single isomer, unassigned) [Compound I-255] | 0.87 nM |
| COc1cc(N2CCC(CN3CCN(c4ccc5c(c4)CN([C@H]4CCC(=O)NC4=O)C5=O)CC3)CC2)ccc1[C@@H]1c2ccc(O)cc2CC[C@@H]1c1ccccc1 [Compound I-144, (S)-3-(5-(4-((1-(4-((1S,2S)-6-hydroxy-2-phenyl-1,2,3,4-tetrahydronaphthalen-1-yl)-3-methoxyphenyl)piperidin-4-yl)methyl)piperazin-1-yl)-1-oxoisoindolin-2-yl)piperidine-2,6-dione] | 0.37 nM |
| C[C@]1(C2CCCCC2)CCc2cc(O)ccc2[C@@H]1c1ccc(N2CCC(CN3CCN(c4ccc5c(c4)CN([C@H]4CCC(=O)NC4=O)C5=O)CC3)CC2)cc1 [Compound I-239, (S)-3-(5-(4-((1-(4-((1S,2R)-2-cyclohexyl-6-hydroxy-2-methyl-1,2,3,4-tetrahydronaphthalen-1-yl)phenyl)piperidin-4-yl)methyl)piperazin-1-yl)-1-oxoisoindolin-2-yl)piperidine-2,6-dione] | 1990 nM |
| C[C@@]1(c2ccccc2)CCc2cc(O)ccc2[C@@H]1c1ccc(N2CCC(CN3CCN(c4ccc5c(c4)CN([C@H]4CCC(=O)NC4=O)C5=O)CC3)CC2)cc1 [Compound I-148, (S)-3-(5-(4-((1-(4-((1R,2R)-6-hydroxy-2-methyl-2-phenyl-1,2,3,4-tetrahydronaphthalen-1-yl)phenyl)piperidin-4-yl)methyl)piperazin-1-yl)-1-oxoisoindolin-2-yl)piperidine-2,6-dione] | 424 nM |
| COc1cccc([C@@H]2OCc3cc(O)ccc3[C@@H]2c2ccc(N3CCC(CN4CCN(c5ccc6c(c5)CN([C@H]5CCC(=O)NC5=O)C6=O)CC4)CC3)cc2)c1 [Compound I-374, (S)-3-(5-(4-((1-(4-((3R,4S)-7-hydroxy-3-(3-methoxyphenyl)isochroman-4-yl)phenyl)piperidin-4-yl)methyl)piperazin-1-yl)-1-oxoisoindolin-2-yl)piperidine-2,6-dione] | 8 nM |
| O=C1CC[C@@H](c2ccc(N3CCC4(CCN(CC5CCN(c6ccc([C@@H]7c8ccc(O)cc8CC[C@@H]7c7ccccc7)cc6)CC5)C4)CC3)cc2)C(=O)N1 (single isomer, unassigned) [Compound I-284] | ≥ 10000 nM |
| Cc1cc(F)ccc1[C@H]1CC(F)(F)c2cc(O)ccc2[C@H]1c1ccc(N2CCC(CN3CCN(c4ccc5c(c4)CN([C@H]4CCC(=O)NC4=O)C5=O)CC3)CC2)cc1 [Compound I-326, (S)-3-(5-(4-((1-(4-((1R,2S)-4,4-difluoro-2-(4-fluoro-2-methylphenyl)-6-hydroxy-1,2,3,4-tetrahydronaphthalen-1-yl)phenyl)piperidin-4-yl)methyl)piperazin-1-yl)-1-oxoisoindolin-2-yl)piperidine-2,6-dione] | 0.58 nM |
| O=C1CCC(n2ncc3cc(N4CCN(CC5CCN(c6ccc([C@@H]7c8ccc(O)cc8CC[C@@H]7c7ccccc7)cc6)CC5)CC4)ccc32)C(=O)N1 (stereo partly shown) [Compound I-302] | 2 nM |
| C[C@]1(c2ccccc2)CCc2cc(O)ccc2[C@@H]1c1ccc(N2CCC(CN3CCN(c4ccc5c(c4)CN([C@H]4CCC(=O)NC4=O)C5=O)CC3)CC2)cc1 [Compound I-344, (S)-3-(5-(4-((1-(4-((1R,2S)-6-hydroxy-2-methyl-2-phenyl-1,2,3,4-tetrahydronaphthalen-1-yl)phenyl)piperidin-4-yl)methyl)piperazin-1-yl)-1-oxoisoindolin-2-yl)piperidine-2,6-dione] | 84 nM |

The next lines start with the values.

| DC50 | SMILES |
| --- | --- |
| ≥ 10000 nM | Cc1cc(F)cc(C)c1[C@@H]1CCc2cc(O)ccc2[C@@H]1c1ccc(N2CCC(CN3CCN(c4ccc5c(c4)CN([C@H]4CCC(=O)NC4=O)C5=O)CC3)CC2)cc1 [II-71] |
| ≥ 10000 nM | C[C@H]1CN(c2ccc3c(c2)CN([C@H]2CCC(=O)NC2=O)C3=O)CCN1CC1CCN(c2ccc([C@H]3c4ccc(O)cc4CC[C@H]3c3ccccc3)cc2)CC1 (single isomer, unassigned) [II-11] |
| 100 nM | O=C1CC[C@H](N2Cc3cc(N4CCN(C5CCN(c6ccc([C@H]7c8ccc(O)cc8CC[C@H]7c7ccccc7)cc6)CC5)CC4)ccc3C2=O)C(=O)N1 [II-30] |
| 22 nM | O=C1CC[C@@H](c2ccc(N3CCC4(CCN(CC5CCN(c6ccc([C@@H]7c8ccc(O)cc8CO[C@@H]7c7ccccc7)cc6)CC5)C4)CC3)cc2)C(=O)N1 (single isomer, unassigned) [Compound I-390] |
| 173 nM | O=C1CC[C@H](N2Cc3cc(N4CCN(C[C@@H]5CCCN(c6ccc([C@H]7c8ccc(O)cc8CC[C@H]7c7ccccc7)cc6)C5)CC4)ccc3C2=O)C(=O)N1 (single isomer, unassigned) [II-21] |
| 0.15 nM | O=C1CC[C@H](N2Cc3cc(N4CCN(C[C@H]5CC[C@H](c6ccc([C@@H]7c8ccc(O)cc8CC[C@@H]7c7ccccc7)cc6)CC5)CC4)ccc3C2=O)C(=O)N1 [II-52] |
| 0.45 nM | O=C1CCC(N2Cc3cc([C@H]4CCN(CC5CCN(c6ccc([C@@H]7c8ccc(O)cc8CC[C@@H]7c7ccccc7)cc6)CC5)C[C@H]4O)ccc3C2=O)C(=O)N1 (single isomer, unassigned) [II-108] |
| ≥ 10000 nM | NC(=O)C(CCC(=O)O)N1Cc2cc(N3CCN(CC4CCN(c5ccc([C@@H]6c7ccc(O)cc7CO[C@@H]6c6ccccc6)cc5)CC4)CC3)ccc2C1=O (stereo partly shown) [Compound I-399] |

Reference: US20250388565A1, “ESTROGEN RECEPTOR ALPHA DEGRADERS AND METHODS OF USE THEREOF” (Relay Therapeutics, Inc., priority 2022, published 2025)
